Measurements: patent publication US10239873B2, “7-azaindole or 4,7-diazaindole derivatives as IKKϵ epsilon and TBK1 inhibitor and pharmaceutical composition comprising same” (GREEN CROSS CORPORATION, priority 2015, dated 2019)

Columns and labels:
TBK1 = biological target: T1, TBK1 (Homo sapiens, UniProt Q9UHD2); assay: ADP-Glo Kinase Assay, inhibition activity on TBK1; format: biochemical
T1 construct: purchased Promega (Invitrogen is also named in the same bracket) V4158; PR8031B; V3991 (not assigned to the two kinases)
T1 sequence (Q9UHD2 1-729): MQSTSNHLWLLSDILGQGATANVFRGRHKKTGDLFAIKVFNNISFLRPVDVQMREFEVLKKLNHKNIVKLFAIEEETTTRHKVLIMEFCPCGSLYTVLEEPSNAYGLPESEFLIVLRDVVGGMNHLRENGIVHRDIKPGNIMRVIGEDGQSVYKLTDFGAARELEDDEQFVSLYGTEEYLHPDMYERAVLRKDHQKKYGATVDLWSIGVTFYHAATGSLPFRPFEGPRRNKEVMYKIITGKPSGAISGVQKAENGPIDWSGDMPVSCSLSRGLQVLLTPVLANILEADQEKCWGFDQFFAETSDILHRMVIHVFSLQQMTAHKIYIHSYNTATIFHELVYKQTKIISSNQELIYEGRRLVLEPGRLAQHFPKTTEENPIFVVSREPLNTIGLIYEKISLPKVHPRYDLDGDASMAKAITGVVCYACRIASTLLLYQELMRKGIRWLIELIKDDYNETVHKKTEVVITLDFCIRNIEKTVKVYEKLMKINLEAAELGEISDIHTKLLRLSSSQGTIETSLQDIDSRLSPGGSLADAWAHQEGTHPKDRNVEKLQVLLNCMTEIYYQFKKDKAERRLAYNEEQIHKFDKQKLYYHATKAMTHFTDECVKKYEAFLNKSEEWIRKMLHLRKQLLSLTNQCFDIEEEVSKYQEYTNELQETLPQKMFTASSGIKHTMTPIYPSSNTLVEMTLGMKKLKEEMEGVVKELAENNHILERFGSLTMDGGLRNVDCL
Outline: (§1)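 Kinase activity measured with the ADP-Glo luminescent ADP-detection kit per manufacturer's protocol, using IKKε or TBK1 kinase enzyme systems. Reaction buffer: 40 mM Tris (pH 7.5), 20 mM MgCl2, 0.1 mg/mL BSA; luminescence read on a luminometer.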

IKKε = biological target: T2, IKKε (Homo sapiens, UniProt Q14164); assay: ADP-Glo Kinase Assay, inhibition activity on IKKε; format: biochemical
T2 construct: purchased Promega and/or Invitrogen V4158; PR8031B; V3991 (not assigned to the two kinases)
T2 sequence (Q14164 1-716): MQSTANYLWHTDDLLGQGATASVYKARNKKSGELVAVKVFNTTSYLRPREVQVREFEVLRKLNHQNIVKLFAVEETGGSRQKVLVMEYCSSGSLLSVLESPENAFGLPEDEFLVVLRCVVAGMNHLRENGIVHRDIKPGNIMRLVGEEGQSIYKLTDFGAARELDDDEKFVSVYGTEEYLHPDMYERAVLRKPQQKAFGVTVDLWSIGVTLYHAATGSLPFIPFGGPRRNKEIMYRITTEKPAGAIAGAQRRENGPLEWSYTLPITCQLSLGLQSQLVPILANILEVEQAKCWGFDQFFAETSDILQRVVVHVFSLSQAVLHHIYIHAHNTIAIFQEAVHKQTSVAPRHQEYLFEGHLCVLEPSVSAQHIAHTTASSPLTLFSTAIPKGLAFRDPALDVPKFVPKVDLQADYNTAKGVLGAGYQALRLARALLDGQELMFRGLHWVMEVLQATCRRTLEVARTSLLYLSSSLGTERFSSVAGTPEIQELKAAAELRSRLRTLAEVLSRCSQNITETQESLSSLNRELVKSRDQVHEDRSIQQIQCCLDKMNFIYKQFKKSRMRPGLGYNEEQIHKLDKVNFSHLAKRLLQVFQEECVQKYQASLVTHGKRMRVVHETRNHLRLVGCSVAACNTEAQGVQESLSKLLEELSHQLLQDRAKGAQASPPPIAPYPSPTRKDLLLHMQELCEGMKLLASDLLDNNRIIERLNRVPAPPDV
Outline: as §1

Row | IC50 (TBK1) [µM] | IC50 (IKKε) [µM] | Structure (SMILES)
1 | > 10 | > 10 | COc1ccc(-c2cnc3[nH]cc(C4CCN(C(=O)NC(C)C)CC4)c3c2)cc1OC [Example 235, 4-(5-(3,4-dimethoxyphenyl)-1H-pyrrolo[2,3-b]pyridin-3-yl)-N-isopropylpiperidine-1-carboxamide]
2 | > 10 | > 10 | COc1ccc(-c2cnc3[nH]cc(C4=CCN(C(=O)NC(C)C)C4)c3c2)cc1OC [Example 237, 3-(5-(3,4-dimethoxyphenyl)-1H-pyrrolo[2,3-b]pyridin-3-yl)-N-isopropyl-2,5-dihydro-1H-pyrrol-1-carboxamide]
3 | 6.23 | 6.05 | COc1ccc(-c2cnc3[nH]cc(C4CCN(C(=O)NC(C)C)C4)c3c2)cc1OC (centres unmarked) [Example 238, 3-(5-(3,4-dimethoxyphenyl)-1H-pyrrolo[2,3-b]pyridin-3-yl)-N-isopropylpyrrolidine-1-carboxamide]
4 | 0.17 | 0.84 | O=C(c1cccs1)N1CC=C(c2c[nH]c3ncc(Nc4ccc(CN5CCOCC5)cc4)cc23)CC1 [Example 250, (4-(5-(4-(morpholinomethyl)phenylamino)-1H-pyrrolo[2,3-b]pyridin-3-yl)-5,6-dihydropyridin-1(2H)-yl)(thiophen-2-yl)methanone]
